Measurements as given in paper PMC10508264, “Exploring the antioxidant, antimicrobial, cytotoxic and biothermodynamic properties of novel morpholine derivative bioactive Mn(II), Co(II) and Ni(II) complexes – combined experimental and theoretical measurements towards DNA/BSA/SARS-CoV-2 3CL^Pro” (RSC Medicinal Chemistry, 2023).

Tests used:
DNA = DNA cleavage by gel electrophoresis under H2O2; format: biochemical; settings: H2O2 environment
Excerpt: In a cellular system, DNA base pairs can be broken by a variety of mechanisms, including errors in DNA replication, generation of a heteroduplex during homologous recombination, spontaneous deamination of cytosine, and base pairs broken by mutagens or ionizing radiation, which also lead to improper base pairing and mutations. Also, metal complexes have the capability of recognizing DNA mismatches and may become vital entities for investigation and possibly for clinical applications.[55] Moreover, the cleavage of one or both DNA strands is a typical and essential process for maintaining cell viability: during DNA replication and transcription, topoisomerase enzymes correct topological issues, and various nucleases take part in repair mechanisms and DNA degradation, which is one of the distinguishing features of apoptotic programmed cell death. Similarly, several antitumor drugs have the potential to cleave DNA by inducing apoptosis, which eventually leads to cancer cell death. Conversely, molecules that can interact with DNA's major or minor grooves are known as groove-binding molecules, which disrupt and impair the function of the DNA double helix via various non-covalent interactions. The DNA nuclease properties of all samples were assessed in an H2O2 environment by the gel electrophoresis method. DNA cleavage was monitored during the conversion of supercoiled plasmids into linear and nicked DNA fragments. Also, the observed DNA nuclease efficacy for all complexes (1–3) was compared with the free ligand (HL) and CT-DNA alone. No substantial nuclease activity can be seen in the control (Fig. 1 and S13 ^†) (lane 1; DNA + H2O2) even after a lot of time has passed, and free ligand (HL) (lane 2) was monitored as immobile in an H2O2 environment. […] Consequently, it is commonly acknowledged that ROS plays a dual physiological role in controlling a variety of illnesses as well as cellular homeostasis (self-regulating processes like thermoregulation, blood glucose regulation, calcium/potassium homeostasis, and osmoregulation).[56] […] Additionally, it is widely known that the NADPH oxidase enzyme produces reactive oxygen species as part of its antibacterial effect on phagocytic cells. Nevertheless, these types of enzyme seem to be present in a variety of other cells and may have significant signalling pathway functions. When non-carcinogenic toxicity events occur, ROS has the ability to alter cell function as well as to affect the genesis of cancer at several levels. OH˙ can attack DNA, proteins, and lipids due to its high reactivity among ROS. Also, the hydroxyl radical is a key participant in free-radical-mediated hazardous reactions because of its great reactivity. […]

[1] = Nitric oxide scavenging assay; format: biochemical; settings: 546 nm
HepG2 = experiment: MTT cell viability assay, HepG2; format: cell-based, human; settings: HepG2, 72 h of exposure

Row | Compound | DNA cleavage (DNA) | % Inhibition, nitric oxide ([1]; 40 µM) | % Inhibition, nitric oxide ([1]; 80 µM) | % Inhibition, nitric oxide ([1]; 120 µM) | % Inhibition, nitric oxide ([1]; 160 µM) | % Inhibition, nitric oxide ([1]; 200 µM) | % Inhibition, nitric oxide ([1]; 240 µM) | IC50 (HepG2) | IC50 (HepG2; Homo sapiens)
1 | [Mn+2].[O-]c1ccccc1N=Cc1ccc(N2CCOCC2)cc1.[O-]c1ccccc1N=Cc1ccc(N2CCOCC2)cc1.c1ccc(-c2ccccn2)nc1 [(1)] | no considerable cleavage efficiency | 13.14% | 22.48% | 28.54% | 36.64% | 44.75% | 56.69% | 36 ± 1.8 µM | 
2 | [Co+2].[O-]c1ccccc1N=Cc1ccc(N2CCOCC2)cc1.[O-]c1ccccc1N=Cc1ccc(N2CCOCC2)cc1.c1ccc(-c2ccccn2)nc1 [(2)] | complete DNA cleavage | 14.72% | 23.62% | 31.21% | 39.12% | 46.06% | 61.34% | 35.9 ± 1.8 µM | 
3 | [Ni+2].[O-]c1ccccc1N=Cc1ccc(N2CCOCC2)cc1.[O-]c1ccccc1N=Cc1ccc(N2CCOCC2)cc1.c1ccc(-c2ccccn2)nc1 [(3)] | partial DNA cleavage | 14.72% | 23.28% | 29.66% | 38.63% | 45.60% | 59.65% | 33.6 ± 1.7 µM | 
4 | Oc1ccccc1N=Cc1ccc(N2CCOCC2)cc1 [(HL), 2-(4-morpholinobenzylideneamino)phenol] | immobile | 11.42% | 18.26% | 24.28% | 33.21% | 40.53% | 51.62% |  | 108 ± 5.4 µM
